Measured values published in US20240099989A1, “AGENT FOR PREVENTING OR IMPROVING PERIPHERAL NEUROPATHY” (KINKI UNIVERSITY, priority 2021, published 2024).

These molecules were tested on Peripheral Neuropathy in a Mouse Caused by Paclitaxel. Settings: 6 mg/kg paclitaxel + 100 mg/kg orally daily from Day 6 (therapy); from Day 12 onwards.
Type: in vivo, Balb/c mice
From the text: (§1) Six to seven-week-old female Balb/c mice were used for the tests. All the mice were acclimated for seven days after arrival. Then, the mice were grouped into the following four groups: a control group, a group receiving paclitaxel, a group receiving xylitol, and a group receiving paclitaxel and xylitol (a group receiving paclitaxel+xylitol). Each group consisted of five mice.
On Day 8 of acclimation, the mice in the group receiving paclitaxel and the group receiving paclitaxel+xylitol were intraperitoneally administered with paclitaxel at a dose of 6 mg/kg. This day was designated as Day 0 of administration. Thereafter, these mice were intraperitoneally administered with paclitaxel at a daily dose of 6 mg/kg on Day 7 and Day 14.
The mice in the group receiving xylitol and the group receiving paclitaxel+xylitol were orally administered with xylitol at a dose of 5 mg/kg daily from Day 0.
The mice in the four groups described in (4) of the present example (Example 1) were placed in a cage, and the avoidance response frequency (score) was measured by pressing a filament with a bending force of 0.16 g against the back of the hind paw.
as §1, with “tests as with Example 1.” for “tests.”, “mice. […]” for “mice.”
For the mice in the four groups described in (6) of the present example (Example 2), the avoidance response frequency (score) was measured by pressing a filament with a bending force of 0.16 g against the back of the hind paw. […]
The mice in the four groups described in (4) of the present example (Example 3) were placed in a cage, and the avoidance response frequency (score) was measured by pressing a filament with a bending force of 0.16 g against the back of the hind paw. […]

Compound | avoidance response score
OC[C@@H](O)[C@H](O)CO [D-threitol] | maintained a score clearly lower than that of the group receiving paclitaxel
OC[C@H](O)[C@H](O)[C@H](O)[C@@H](O)CO [L-talitol] | maintained a score clearly lower than that of the group receiving paclitaxel
OC[C@@H](O)[C@H](O)[C@@H](O)CO [xylitol] | maintained a score clearly lower than that of the group receiving paclitaxel
